Laboratory results published in article PMC10397409, “The action of physiological and synthetic steroids on the calcium channel CatSper in human sperm” (Frontiers in Cell and Developmental Biology, 2023).
pEC50, pIC50: −log10 of the molar value. “And” between values parts separate entries of the source, which are not always exact repeats. Equal entries are not always repeated. Where two headings read alike, the source gives them in different places.

How the values were obtained:
CatSper [1] = target: T1, CatSper (Homo sapiens, UniProt Q7RTX7+Q86XQ3+Q8NEC5+Q96P56); experiment: Steroid-induced increase in [Ca2+]i in human sperm (Fluo-4 HTS assay, screen 1 activators); assay type: cell-based; conditions: for Emax: read-out: Max amplitude (%) (± SD); for EC50: pooled from 3 independent experiments
T1 construct: Motile spermatozoa were selected by a ‘swim-up’ procedure; endogenous in cells; host or cells: motile human spermatozoa (swim-up) from healthy donors
Description: (§1) Briefly, motile spermatozoa were selected by swim-up and labeled with the fluorescent calcium indicator Fluo-4 a.m. to image changes in [Ca^2+]i. After centrifugation to remove excess dye, Fluo-4 AM loaded cells were distributed in a 384-wells plate to obtain ∼125,000 cells/well. After measuring basal fluorescence, a first injection of compounds was performed in order to evaluate their effect on [Ca^2+]i alone. This first screen is therefore considered as a screen to search for ‘activators’. Fluorescence was recorded for 12 min during which sperm cells were continuously exposed to compounds. P4 or PGE1 were then added in the same wells to evaluate whether the tested compounds can reduce the ligand-induced activation of CatSper. This second screen was therefore considered to be a search for CatSper ‘inhibitors’.
Human semen samples were collected from healthy donors by masturbation after a recommended sexual abstinence period of minimum 2 days. Semen samples were allowed to liquefy at 37°C for 15–30 min. […] Motile sperm were allowed to swim at 37°C for 1 hour. The supernatant was collected in 15 mL Falcon tubes and washed twice by centrifugation at 700 x g for 20 min. Sperm were supplemented with 3 mg/mL HSA.
20 μL of cells (corresponding to ∼125,000 cells) loaded with Fluo-4 a.m. were dispensed in a 384-wells plate (Corning, NY, United States) to allow fluorescence measurement. The dye was excited at 480 nm, and emission was recorded at 530 nm. The change in [Ca^2+]i was assessed simultaneously in all wells using a Functional Drug Screening System (FDSS/μCELL) (Hamamatsu Phototonics K.K., Yokohama, Japan) at 37°C. Basal fluorescence was first measured for 30 s. […] P4 and PGE1 were tested at a near-saturating concentration in the HTS in order to evaluate a potential additive or synergistic effect induced by the compounds. […] For alkalization-induced Ca^2+ measurement, NH4Cl was used as a positive control at a final concentration of 10 mM. […] The Prestwick library was tested in technical duplicate. Ca^2+ response curves were normalized using the following formula F−F0/F0×100 , where F 0 is the average of the basal fluorescence prior to the addition of the compound of interest and F corresponds to the fluorescence value at each time point. The ∆F/F0 of the vehicle control (DMSO) was subtracted from all the other values to adjust for dilution and pipetting artifacts. The values of all compounds were normalized to their respective controls.
Data are shown as mean ± standard deviation (SD) with “n” referring to the number of independent experiments performed using sperm samples from ≥3 different donors. Statistical analysis and fitting of dose-response relations were performed using GraphPad Prism 8.1.1 (Prism, La Jolla, United States). To generate sigmoidal curves, the concentrations were converted to their respective log values, and the data were normalized using the following formula: 100⋅x/Fmax , where Fmax is the maximum value of the positive control. A four-parameter Hill equation with a variable Hill coefficient was fitted to generate the EC02, EC50, and IC50. Statistical significance between control and treated conditions was evaluated using a one-way analysis of variance (ANOVA), followed by Dunnett´s test. A p-value <0.05 was considered significant.

CatSper [2] = target: T1, CatSper; experiment: Inhibition of P4-induced Ca2+ influx in human sperm (screen 2 inhibitors); assay type: cell-based; conditions: for IC50: P4-induced response, pooled from 3 independent experiments
Description: as §1
Human semen samples were collected from healthy donors by masturbation after a recommended sexual abstinence period of minimum 2 days. Semen samples were allowed to liquefy at 37°C for 15–30 min. Motile spermatozoa were selected by a ‘swim-up’ procedure as previously described ([Strünker et al., 2011]). Briefly, 1 mL of semen was deposited in a 45°-inclined 50 mL Falcon tube with 4 mL of Human Tubular Fluid (HTF) medium containing: 93.8 mM NaCl, 4.7 mM KCl, 0.2 mM MgSO4, 0.37 mM KH2PO4, 2.04 mM CaCl2, 20.98 mM HEPES, 2.78 mM glucose, 21.4 mM Na-lactate, 4 mM NaHCO3, 0.33 mM Na-pyruvate, and the pH was adjusted to 7.35. Motile sperm were allowed to swim at 37°C for 1 hour. The supernatant was collected in 15 mL Falcon tubes and washed twice by centrifugation at 700 x g for 20 min. Sperm were supplemented with 3 mg/mL HSA. Written informed consent was obtained from all donors prior to donation and approved by the Cantonal Ethics Committee of the State of Geneva (CCER #14-147).
Cells were loaded with the fluorescent Ca^2+ indicator Fluo-4 AM at a final concentration of 2.5 µM for 30 min at 37°C. Excess dye was washed via centrifugation at 700 x g for 20 min and sperm were resuspended in HTF medium to obtain a final concentration of 6.25 x 10^6 cells/mL. 20 μL of cells (corresponding to ∼125,000 cells) loaded with Fluo-4 a.m. were dispensed in a 384-wells plate (Corning, NY, United States) to allow fluorescence measurement. The dye was excited at 480 nm, and emission was recorded at 530 nm. The change in [Ca^2+]i was assessed simultaneously in all wells using a Functional Drug Screening System (FDSS/μCELL) (Hamamatsu Phototonics K.K., Yokohama, Japan) at 37°C. Basal fluorescence was first measured for 30 s. […] P4 and PGE1 were tested at a near-saturating concentration in the HTS in order to evaluate a potential additive or synergistic effect induced by the compounds. Non-specific CatSper inhibitor MDL 12330A was used as a negative control at final concentration of 20 µM while DMSO was used as a vehicle control. For alkalization-induced Ca^2+ measurement, NH4Cl was used as a positive control at a final concentration of 10 mM. Fluorescence was recorded for a total of 16.5 min: 30 s before injection, 12 min after the first injection of the tested compounds, and 4 min after the second injection of either P4 or PGE1. The Prestwick library was tested in technical duplicate. Ca^2+ response curves were normalized using the following formula F−F0/F0×100 , where F 0 is the average of the basal fluorescence prior to the addition of the compound of interest and F corresponds to the fluorescence value at each time point. The ∆F/F0 of the vehicle control (DMSO) was subtracted from all the other values to adjust for dilution and pipetting artifacts. The values of all compounds were normalized to their respective controls.

[3] = EC50 (±SD), increase in [Ca2+]i, dose-response 90 µM to 0.3 nM
[4] = IC50 (±SD), inhibition of P4-induced Ca2+ response, dose-response 90 µM to 0.3 nM
[5] = maximal amplitude of steroid-induced [Ca2+]i increase, relative to P4, 3 independent experiments
[6] = read-out: Mean IC50 (P4) µM (±SD)

SMILES | Emax (CatSper [1]) [%] | Max P4 inhibition (%) (± SD) (CatSper [2]; 3 independent experiments) | IC50 (CatSper [2]; Mean IC50 (P4) µM (±SD)) [µM] | EC50 (CatSper [1]; read-out: Mean EC50 µM (±SD)) [µM] | IC50 (CatSper [2]; [6]) [µM] | Emax (CatSper [1]; [5]) [%] | other results
C[C@]12CC[C@H]3[C@@H](CCC4=CC(=O)CC[C@@]43C)[C@@H]1CC[C@@H]2O [Testosterone] | 87 | 81 (±6) % | 1.09 | – | – | – | pEC50 (CatSper [1]; [3]): 6.39
C[C@]12CC[C@H]3[C@@H](CCC4=CC(=O)CC[C@@]43C)[C@@H]1CC[C@@H]2C(=O)CO [Deoxycorticosterone] | 94 | 86 (±3) % | – | – | – | – | pEC50 (CatSper [1]; [3]): 6.52; pEC50 (CatSper [1]; EC50, increase in [Ca2+]i): 6.52; EC50 (CatSper [1]; Mean EC50 µM (±SD)): 0.295 µM; reduction of the P4 response (CatSper [2]): more than 86%; pIC50 (CatSper [2]; [4]): 6.28; pIC50 (CatSper [2]; IC50, reduction of P4 response): 6.30
C[C@]12CC[C@@H](O)C[C@H]1CC[C@@H]1[C@@H]2CC[C@]2(C)C(=O)CC[C@@H]12 [3-alpha-hydroxy-5-beta-androstan-17-one] | – | 66 (±2) % | – | 0.915 | 1.52 | – | Max amplitude (%) (± SD) (CatSper [1]; [5]): 66 (±2) %
C#C[C@]1(O)CC[C@H]2[C@@H]3CCC4=CC(=O)CC[C@@H]4[C@H]3CC[C@@]21C [norethindrone] | 28 | – | – | 6.05 | 4.35 | – | Max P4 inhibition (%) (± SD) (CatSper [2]): 22 (±5) %
CC(=O)C1CCC2C3CC[C@H]4CC(=O)CC[C@]4(C)C3CC[C@]12C (some centres unmarked) [S46] | 141 | 90 (±6) % | – | – | – | – | pEC50 (CatSper [1]; EC50, increase in [Ca2+]i in human sperm): 7.49 and 7.14; pIC50 (CatSper [2]; IC50, decrease of response to P4): 7.34 and 6.86
C[C@]12CC[C@H]3C(=CCc4cc(O)ccc43)[C@@H]1CCC2=O [equilin] | 62 | – | – | – | – | – | pEC50 (CatSper [1]): 6.00; pIC50 (CatSper [2]): 5.73; Max P4 inhibition (%) (± SD) (CatSper [2]): 50 (±11) %
CC#C[C@]1(O)CC[C@H]2[C@@H]3CCC4=CC(=O)CCC4=C3[C@@H](c3ccc(N(C)C)cc3)C[C@@]21C [mifepristone] | 9 | – | – | 13.5 | 11 | – | Max P4 inhibition (%) (± SD) (CatSper [2]): 25 (±25) %
C[C@]12CC[C@@H]3c4ccc(O)cc4CC[C@H]3[C@@H]1CCC2=O [estrone] | – | 67 (±2) % | 0.56 | – | – | 49 | EC50 (CatSper [1]; Mean EC50 µM (±SD)): 0.267 µM
C#C[C@]1(O)CC[C@H]2[C@@H]3CCc4cc(OC)ccc4[C@H]3CC[C@@]21C [ethynylestradiol 3-methyl ether] | – | 4 (±3) % | – | – | – | 9 | –
C[C@]12CCC(=O)C(O)=C1CC[C@@H]1[C@@H]2CC[C@]2(C)C(=O)CC[C@@H]12 [formestane] | 71 | 70 (±8) % | 1.22 | – | – | – | EC50 (CatSper [1]; Mean EC50 µM (±SD)): 0.353 µM
CC12CCC(O)CC1CCC1C2CCC2(C)C1CCC2(C)O (centres unmarked) [S64] | 65 | 55 (±1) % | 0.682 | – | – | – | EC50 (CatSper [1]; Mean EC50 µM (±SD)): 0.265 µM
CC(=O)[C@@]1(O)CC[C@H]2[C@@H]3C[C@H](C)C4=CC(=O)C=C[C@]4(C)[C@@]3(F)[C@@H](O)C[C@@]21C [fluorometholone] | – | 29 (±12) % | – | 0.702 | 6.51 | 42 | –
C[C@]12CC[C@@H]3c4ccc(O)cc4CC[C@H]3[C@@H]1CC[C@@H]2O [estradiol-17 beta] | – | 67 (±3) % | – | 0.761 | 1.45 | – | Max amplitude (%) (± SD) (CatSper [1]; [5]): 75 (±8) %
C#C[C@]1(O)CC[C@H]2[C@@H]3CCC4=CC(=O)CCC4=C3C=C[C@@]21CC [gestrinone] | 2 | 11 (±21) % | 33.6 | – | – | – | –
C[C@]12CC[C@H]3[C@@H](CCC4=CC(=O)CC[C@@H]43)[C@@H]1CC[C@@H]2O [Nandrolone] | 98 | 85 (±1) % | 0.729 | – | – | – | EC02 compared with reported maximum concentration in blood serum (CatSper [1]): EC02 below the reported maximum concentration found in blood serum; pEC50 (CatSper [1]; [3]): 6.51; increase in [Ca2+]i (CatSper [1]; at low concentrations in the nanomolar range): 30%; pIC50 (CatSper [2]; [4]): 6.15
C[C@]12C[C@H](O)[C@H]3[C@@H](CCC4=CC(=O)CC[C@@]43C)[C@@H]1CC[C@@H]2C(=O)CO [corticosterone] | – | 49 (±5) % | – | 2.94 | 6.1 | 55 | –
CC(=O)O[C@]1(C(C)=O)CC[C@H]2[C@@H]3C=C(C)C4=CC(=O)CC[C@]4(C)[C@H]3CC[C@@]21C [megestrol acetate] | – | -4 (±11) % | – | – | – | 3 | –
C#C[C@]1(O)CC[C@H]2[C@@H]3CCC4=CC(=O)CC[C@]4(C)[C@H]3CC[C@@]21C [ethisterone] | 8 | 10 (±9) % | – | – | 5.13 | – | –
CC12CCC(O)CC1=CCC1C2CCC2(C)C(C(=O)O)CCC12 (centres unmarked) [S67] | 80 | 86 (±3) % | 0.253 | – | – | – | EC50 (CatSper [1]; Mean EC50 µM (±SD)): 0.108 µM
CC(=O)[C@H]1CC[C@H]2[C@@H]3C[C@H](C)C4=CC(=O)CC[C@]4(C)[C@H]3[C@@H](O)C[C@]12C [Medrysone] | – | 83 (±4) % | – | 0.23 | 0.471 | 104 | pEC50 (CatSper [1]; increase in [Ca2+]i, dose-response 90 µM to 0.3 nM, read-out: EC50 (±SD)): 6.62; pIC50 (CatSper [2]; inhibition of P4-induced Ca2+ response, dose-response 90 µM to 0.3 nM, read-out: IC50 (±SD)): 6.24
C[C@]12CCC(=O)C=C1C=C[C@@H]1[C@@H]2CC[C@@]2(C)[C@H]1CC[C@@]21CCC(=O)O1 [canrenone] | – | 49 (±1) % | – | 7.51 | – | 69 | –
